Assay results published in US20080004272A1, “Compositions and methods for modulating gated ion channels” (PainCeptor Pharma Corporation, priority 2006, published 2008).

biological target: T1, ASIC1a (Homo sapiens, UniProt P78348); test: Two-electrode voltage clamp in Xenopus laevis oocytes (Xo), acid-induced currents; format: cell-based; design: expressed in transfected cells; host or cells: Xenopus laevis oocytes (nuclear microinjection of expression vector such as pcDNA3); details: 30 μM, Xenopus oocytes; read-out: % inh. at 30 μM (Xo)
T1 sequence (P78348 1-528): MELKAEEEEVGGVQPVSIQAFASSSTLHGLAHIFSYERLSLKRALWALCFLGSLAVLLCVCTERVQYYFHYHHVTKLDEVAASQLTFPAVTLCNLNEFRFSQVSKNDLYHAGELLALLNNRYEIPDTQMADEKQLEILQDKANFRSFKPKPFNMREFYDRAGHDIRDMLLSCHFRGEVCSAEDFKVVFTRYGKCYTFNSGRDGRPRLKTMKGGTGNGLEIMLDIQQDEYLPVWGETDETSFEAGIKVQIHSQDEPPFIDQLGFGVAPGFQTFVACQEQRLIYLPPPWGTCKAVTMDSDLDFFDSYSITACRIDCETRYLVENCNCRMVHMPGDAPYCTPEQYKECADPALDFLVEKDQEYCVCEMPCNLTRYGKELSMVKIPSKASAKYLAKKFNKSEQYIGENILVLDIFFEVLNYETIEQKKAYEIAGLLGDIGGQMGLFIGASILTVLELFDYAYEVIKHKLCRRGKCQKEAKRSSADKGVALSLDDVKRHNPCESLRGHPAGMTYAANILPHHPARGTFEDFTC
Procedure: Two-electrode voltage clamp electrophysiological assays in Xenopus laevis oocytes expressing gated ion channels are performed as follows:
Oocytes are surgically removed from adult Xenopus laevis and treated for 2 h at room temperature with 1 mg/ml type I collagenase (Sigma) in Barth's solution under mild agitation. Selected oocytes at stage IV-V are defolliculated manually before nuclear microinjection of 2.5-5 ng of a suitable expression vector, such as pcDNA3, comprising the nucleotide sequence encoding a gated ion channel subunit protein. In such an experiment, the oocytes express homomultimeric proton-gated ion channels on their surface. In an alternate experiment, one, two, three or more vectors comprising the coding sequences for distinct gated ion channel subunits are co-injected in the oocyte nuclei. In the latter case, oocytes express heteromultimeric proton-gated ion channels. For example, ASIC2a and/or ASIC3 subunits in pcDNA3 vector are co-injected at a 1:1 cDNA ratio. After 2-4 days of expression at 19° C. in Barth's solution containing […] gentamicin and 1.8 mM CaCl2, gated ion channels are activated by applying an acidic solution (pH<7) and currents are recorded in a two electrode voltage-clamp configuration, using an OC-725B amplifier (Warner Instruments). Currents are acquired and digitized at 500 Hz on an Apple Imac G3 computer with an A/D NB-MIO-16XL interface (National Instruments) and recorded traces are post-filtered at 100 Hz in Axograph (Axon Instruments) (Neher, E. and Sakmann, B. (1976) Nature 260:799-802). Once impaled with the microelectrodes, oocytes are continuously superfused at 10-12 ml/min with a modified Ringer's solution containing 97 mM NaCl, 2 mM KCl, 1.8 mM CaCl2, and 10 mM HEPES brought to pH 7.4 with NaOH (Control Ringer). Test Ringer solution is prepared by replacing HEPES with MES and adjusting the pH to the desired acidic value. Compounds of the present invention are prepared in both the Control and Test Ringer solutions and applied to oocytes at room temperature through a computer-controlled switching valve system. Osmolarity of all solutions is adjusted to 235 mOsm with choline chloride. Similarly, recordings can also be acquired in an automated multichannel oocytes system as the OpusExpress™ (Molecular Devices, Sunnyvale, USA).
FIGS. 1A and 2A illustrate the inhibitory effects of Compounds 203 and 206 on acid-induced activation of recombinant homomeric hASIC1a channels.

Work on `CN1CCc2c(-c3ccccc3)cc3c(c2C1)NC(=O)/C3=N/OC1CCCCO1` (centres unmarked) [Compound 61] yielded an inhibition at 30 µM greater than 50%.

same assay, conditions: 50 μM, Xenopus oocytes; read-out: % inh. at 50 μM (Xo)

`COc1ccc(F)cc1Nc1ccc([N+](=O)[O-])c2c1CCN(C)C2` [Compound 6] and `COc1ccc(F)cc1Nc1ccc(N)c2c1CCN(C)C2` [Compound 7] cannot be ordered by inhibition at 50 µM: less than 25% for the first, less than 25% for the second.

`COc1ccc(F)cc1Oc1ccc([N+](=O)[O-])c2cnccc12` [Compound 8] and `COc1ccc(F)cc1Oc1ccc([N+](=O)[O-])c2c[n+](C)ccc12` [Compound 11] cannot be ordered by inhibition at 50 µM: less than 25% for the first, less than 25% for the second.

`COc1ccc(F)cc1Oc1ccc([N+](=O)[O-])c2c1CCN(C)C2` [Compound 10] and `COc1ccc(F)cc1Oc1cc2c(c3c1CCN(C)C3)NC(=O)C2=O` [Compound 13] cannot be ordered by inhibition at 50 µM: less than 25% for the first, less than 25% for the second.

First: COc1ccc(F)cc1Oc1cc2c(c3c1CCN(C)C3)NC(=O)/C2=N/O [Compound 12]
Second: CCOC(C)O/N=C1/C(=O)Nc2c1cc(-c1cc(F)ccc1OC)c1c2CN(C)CC1 (centres unmarked) [Compound 67]
The inhibition at 50 µM of the first is higher: 50 to 70% for the first, less than 25% for the second.

Compared with `CCOC(C)O/N=C1/C(=O)Nc2c1cc(-c1ccccc1)c1c2CN(C)CC1` (centres unmarked) [Compound 63], `CNN=C1C(=O)Nc2c1cc(-c1ccccc1)c1c2CN(C)CC1` [Compound 108] is lower in inhibition at 50 µM: 30 to 50% for the first, less than 25% for the second.

`CC(=O)OCCOCO/N=C1/C(=O)Nc2c1cc(-c1ccccc1)c1c2CN(C)CC1` [Compound 64] and `CC(=O)NN=C1C(=O)Nc2c1cc(-c1ccccc1)c1c2CN(C)CC1` [Compound 112] cannot be ordered by inhibition at 50 µM: less than 25% for the first, less than 25% for the second.

`COC(=O)c1ccccc1CO/N=C1/C(=O)Nc2c1cc(-c1ccccc1)c1c2CN(C)CC1` [Compound 65] and `CN1CCc2c(-c3ccccc3)cc3c(c2C1)NC(=O)C3=NNC(=O)c1ccc(O)cc1O` [Compound 113] cannot be ordered by inhibition at 50 µM: 20 to 40% for the first, less than 25% for the second.

`COCCOCN1C(=O)/C(=N/O)c2cc(-c3ccccc3)c3c(c21)CN(C)CC3` [Compound 66] and `CN1CCc2c(-c3ccccc3)cc3c(c2C1)NCC/C3=N/O` [Compound 96] fall in the same range of inhibition at 50 µM: 20 to 40% for the first, 20 to 40% for the second.

`CN1CCc2c(-c3ccccc3)cc3[nH]c(=O)c(=O)[nH]c3c2C1` [Compound 100] and `CN1CCc2c(-c3ccccc3)cc(C#N)c(Br)c2C1` [Compound 175] cannot be ordered by inhibition at 50 µM: less than 25% for the first, less than 25% for the second.

`CN1CCc2c(-c3ccccc3)cc3ncc(O)nc3c2C1` [Compound 101] and `CN1CCc2c(-c3ccccc3)cc(C#N)c(Cl)c2C1` [Compound 176] cannot be ordered by inhibition at 50 µM: less than 25% for the first, less than 25% for the second.

`CN1CCc2c(-c3ccccc3)cc3c(c2C1)NC(=O)C3=NNC(=O)C(N)=O` [Compound 107] and `CCOC(=O)CC(=O)NN=C1C(=O)Nc2c1cc(-c1ccccc1)c1c2CN(C)CC1` [Compound 110] cannot be ordered by inhibition at 50 µM: 20 to 40% for the first, less than 25% for the second.

`CN1CCc2c(-c3ccccc3)cc3c(c2C1)NC(=O)C3=NNCCO` [Compound 109] and `CC(=O)Nc1c(C(N)=O)cc(-c2ccccc2)c2c1CN(C)CC2` [Compound 164] cannot be ordered by inhibition at 50 µM: less than 25% for the first, less than 25% for the second.

`CN1CCc2c(-c3ccccc3)ccc(CNC(=O)c3ccccc3)c2C1` [Compound 116] and `CN1CCc2c(-c3ccccc3)cc(C(=O)NOCc3ccccc3)c(N)c2C1` [Compound 166] cannot be ordered by inhibition at 50 µM: less than 25% for the first, less than 25% for the second.

`CCOC(=O)CN(Cc1ccccc1)Cc1ccc(-c2ccccc2)c2c1CN(C(=O)OCC)CC2` [Compound 122] and `CCOC(=O)N1CCc2c(-c3ccccc3)ccc(CN(CC(=O)O)Cc3ccccc3)c2C1` [Compound 123] cannot be ordered by inhibition at 50 µM: 20 to 40% for the first, less than 25% for the second.

`CN1CCc2c(Br)ccc(NC(=O)CCl)c2C1` [Compound 146] and `CCOC(=O)N1CCc2c(Br)cc(C(=O)CCl)c(N)c2C1` [Compound 163] cannot be ordered by inhibition at 50 µM: less than 25% for the first, less than 25% for the second.

`CC(C)(C)OC(=O)N1CCc2c(-c3ccccc3)ccc(NCC(=O)O)c2C1` [Compound 165] and `COC(=O)CNc1ccc(-c2ccccc2)c2c1CN(C(=O)OC(C)(C)C)CC2` [Compound 167] cannot be ordered by inhibition at 50 µM: 20 to 40% for the first, less than 25% for the second.

`CC(C)(C)OC(=O)N1CCc2c(-c3ccccc3)ccc(N)c2C1` [Compound 168] and `CC(C)(C)OC(=O)N1CCc2c(-c3ccccc3)ccc(NCC(=O)Oc3ccccc3)c2C1` [Compound 170] cannot be ordered by inhibition at 50 µM: less than 25% for the first, less than 25% for the second.

`COC(=O)CN(C(C)=O)c1ccc(-c2ccccc2)c2c1CN(C)CC2` [Compound 169] and `O=C(/C=N/O)Nc1ccc(-c2ccccc2)c2c1CNCC2` [Compound 171] cannot be ordered by inhibition at 50 µM: less than 25% for the first, less than 25% for the second.

`CCN(CC)C(=O)c1cc(-c2cc(F)ccc2OC)cc(C)c1N` [Compound 188, 4-Amino-5′-fluoro-2′-methoxy-5-methyl-biphenyl-3-carboxylic acid diethylamide] and `CCN(CC)C(=O)c1cc(-c2cc(F)ccc2OC)cc(C)c1N(C(=O)N1CCOCC1)C(=O)N1CCOCC1` [Compound 190, Morpholine-4-carboxylic acid (5-diethylcarbamoyl-5′-fluoro-2′-methoxy-3-methyl-biphenyl-4-yl)-(morpholine-4-carbonyl)-amide] cannot be ordered by inhibition at 50 µM: less than 25% for the first, less than 25% for the second.

same assay, conditions: 100 μM, Xenopus oocytes; read-out: % inh. at 100 μM (Xo)

`COCCOCO/N=C1/C(=O)Nc2c1cc(-c1ccccc1)c1c2CN(C)CC1` [Compound 62] showed an inhibition at 100 µM greater than 50%.

biological target: T1, ASIC1a; test: Calcium imaging of MES-induced calcium response (FLIPR); format: cell-based; design: host or cells: HEK293; details: ASIC1a expressing HEK293 cells, MES-induced calcium response; read-out: IC50 (FLIPR)
Procedure: […] Confluency of cells should be 80-90% on day of plating. Cells are rinsed with 10 ml of PBS and cells are re-suspended by addition of culture medium and trituration with a 25 ml pipette.
The cells are seeded at a density of approximately 1×10^6 cells/ml (100 μl/well) in black-walled, clear bottom, 96-well plates pre-treated with 10 mg/l poly-D-lysin (75 μl/well for ≧30 min). Plated cells are allowed to proliferate for 24 h before loading with dye.
Fluo-4/AM (1 mg, Molecular Probes) is dissolved in 912 μl DMSO. The Fluo-4/AM stock solution (1 mM) is diluted with culture medium to a final concentration of 2 μM (loading solution).
The culture medium is aspirated from the wells, and 50 μl of the Fluo-4/AM loading solution is added to each well. The cells are incubated at 37° C. for 30 min.
Following the second wash, 100 μl modified Assay Buffer is added to each well and the fluorescence is measured in FLIPR™ or FlexStation™ (Molecular Devices, USA), or any other suitable equipment known to the skilled in the art.
Temperature: Room temperature (20-22° C.)
First addition: 50 μl test solution at a rate of 30 μl/sec and a starting height of […]
Second addition: 50 μl MES solution (20 mM, 5 mM final concentration) at a rate of 35 μl/sec and a starting height of 150 μl.
Reading intervals: pre-incubation−10 sec×7 and 3 sec×3 antagonist phase−3 sec×7 and 10 sec×12
Addition plates (compound test plate and MES plate) are placed on the right and left positions in the FLIPR tray, respectively. Cell plates are placed in the middle position and the ASIC1a program is effectuated. FLIPR will then take the appropriate measurements in accordance with the interval settings above. Fluorescence obtained after stimulation is corrected for the mean basal fluorescence (in modified Assay Buffer).
The MES-induced peak calcium response, in the presence of test substance, is expressed relatively to the MES response alone. Test substances that block the MES-induced calcium response are re-tested in triplicates.

`O=C1Nc2c(cc(-c3ccccc3)c3c2CCCC3)/C1=N/O` [Compound 114] and `CN1CCc2c(-c3ccccc3S(=O)(=O)N(C)C)cc3c(c2C1)NC(=O)/C3=N\O` [Compound 223] cannot be ordered by IC50: greater than 70 µM for the first, greater than 70 µM for the second.

`CCOC(=O)N1CCc2c(Br)ccc(NC(=O)CCl)c2C1` [Compound 145] and `CN1CCc2c(-c3ccccc3)ccc(NC(=O)CC(=O)O)c2C1` [Compound 153] cannot be ordered by IC50: greater than 70 µM for the first, greater than 70 µM for the second.

`O=C(/C=N/O)Nc1ccc(-c2ccccc2)c2ccncc12` [Compound 152] and `CN1CCc2c(cccc2-c2ccccc2)C1` [Compound 173] cannot be ordered by IC50: greater than 70 µM for the first, greater than 70 µM for the second.

Work on `CC(=O)Nc1c([N+](=O)[O-])cc(-c2ccccc2)c2c1CN(C)CC2` [Compound 154] yielded an IC50 greater than 70 µM.
